# pKd: −log10 of the molar value. Values joined by “and” are separate entries in the source; they are usually repeats but may differ in a detail not shown here. Identical values can stand only once. “Also recorded” adds a separate entry of the source. Like-named read-outs stand apart in the source and are kept apart here.
# Columns and labels:
# MvfR regulon [1] = assay: LC/MS quantification of HAQs and related molecules in bacterial culture supernatants; assay type: cell-based, P. aeruginosa; conditions: Pseudomonas aeruginosa
# PA14 [2] = assay: Antibiotic tolerance/persister (AT/P) cell formation, meropenem, CFU plating; assay type: cell-based, P. aeruginosa; conditions: 50 μM compound
# Protocol: Wild type (PA14) P. aeruginosa was grown in liquid culture with or without Compound 54 and treated with meropenem according to published procedures (see e.g., Starkey et al, PLoS Pathog. 2014, 10:e1004321). Data are expressed as fraction of original culture surviving antibiotic treatment.
# (§1) AT/P efficacy of compounds using CFU plating was assessed by growning over-night, cultures diluted 1:100 in triplicate in fresh LB medium in the presence or absence of inhibitor, and re-grown to an OD600 of 2.0 while shaking under aeration at 37° C. Before the antibiotic treatment, aliquots were plated to obtain reference colony counts. […] At 24-h and 48-h time points, the number of surviving bacteria were assessed by plating. The survival fraction of AT/P cells was calculated by dividing the number of surviving bacteria by the number of live bacteria that were present before the antibiotic treatment (reference datum) and expressed as a mean (±SD) of at least three replicate experiments. Using the same CFU plating assay, the efficacy of all compounds identified will be tested against additional antibiotic classes: b-lactams (ceftazidime, cefepime and imipenem), quinolones (ciprofloxacin, moxifloxacin, and levofloxacin), and aminoglycosides (gentamicin and tobramycicn).
# MvfR regulon [3] = assay: Quantification of pyocyanin (OD520nm of chloroform-extracted cultures); assay type: cell-based, P. aeruginosa; conditions: for IC50 / activity at 50 µM / activity at 1 µM / activity at 10 µM: Pseudomonas aeruginosa; for IC50: read-out: IC50 pyocyanin (μM); for activity at 50 µM: read-out: pyocyanin @50 uM (%), compound at 50 uM; for activity at 1 µM: read-out: pyocyanin @1 uM (%), compound at 1 uM; for activity at 10 µM: read-out: pyocyanin @10 uM (%), compound at 10 uM
# [4] = Pharmacokinetics in mouse plasma and lung after single subcutaneous injection; assay type: in vivo, mice; conditions: for stability in vivo (serum concentration): 10 mg/kg subcutaneous, over 24 h; for pharmacokinetics (in words): mouse, in vivo
# Protocol: FIGS. 1F-1G show pharmacokinetics measured in mouse plasma (FIG. 1F) and lung (FIG. 1G) following a single subcutaneous injection of Compounds 53, 54, or 72 at 10 mg/kg.
# MvfR = target: T1, MvfR (Pseudomonas aeruginosa, UniProt Q9I4X0); assay: Surface plasmon resonance (SPR) binding to purified MvfR co-inducer binding domain; set-up: species or system P. aeruginosa; conditions: for Kd: steady state; for pKd: mean KD value, mean over the compounds named
# T1 construct: made in house
# Protocol: Compounds identified to interfere with MvfR were confirmed for the direct physical interaction with this protein. Using SPR, the percentage of compound's binding to the purified MvfR protein was analyzed and used to determine the binding parameters (KD, kon and koff)—thus determining the kinetic of interaction with MvfR.
# The recombinant MvfR co-inducer binding domain was purified using Ni-NTA chromatography, as previously reported (see e.g., Xiao et al, Microbiology, 2006, 152:1679-1686; Starkey et al, PLoS Pathog. 2014, 10:e1004321; and Kefala et al, Acta. Crystallogr. Sect. F. Struct. Biol. Cryst. Commun. 2012, 68:695-697). The purified protein was immobilized with the amine coupling method at a target level of 5000 RU on Chip. SPR was performed according to previously reported procedures (see e.g., Starkey et al, PLoS Pathog. 2014, 10:e1004321; Maura et al, ACS Chemical Biology, 2017, 12:1435-1443; and Kitao et al, MBIO, in press). […] Table 3 lists the steady-state KD data measured by SPR.
# [5] = system: Caco2 intestinal epithelial cells; assay: Survival of Caco2 cells after compound exposure; assay type: cell-based; conditions: 25 μM, 3 hours exposure
# MvfR regulon [6] = assay: pqsA gene expression (pqsA-GFP reporter); assay type: cell-based, P. aeruginosa; conditions: for IC50 / activity at 10 µM / activity at 50 µM: Pseudomonas aeruginosa; for IC50: read-out: IC50 pqsA (μM); for activity at 10 µM: read-out: pqsA @10 uM (%), compound at 10 uM; for activity at 50 µM: read-out: pqsA @50 uM (%), compound at 50 uM
# PA14 [7] = assay: Mouse thigh infection model (PA14); assay type: in vivo, mice
# Protocol: Mice were infected with 5×10^5 and 5×10^6 PA14 cells for the thigh and lung infection model respectively. FIGS. 5A-5C: Thigh model: treatment was initiated […] and repeated at 4, 8, 12 and 18 hours. FIG. 5A: monotherapy with Compound 72, 10 mg/kg (P<0.05 Mann Whitney test); FIG. 5B-5C. Combinatorial: Compound 72 (10 mg/kg) plus Ciprofloxacin 1 mg/kg (subtherapeutic dose) (FIG. 5B: P<0.05; Figure C: P>0.05; Mann Whitney test). CFUs were assessed 24 h post-infection in the thigh (FIG. 5A), liver (FIG. 5B) and spleen (FIG. 5C). Compound 72 was administered subcutaneously and ciprofloxacin intraperitoneally (IP). […] Mice were infected with 5×10^6 PA14 cells lung infection model. Compound 54 (10 mg/kg) plus ciprofloxacin 1 mg/kg treatment (subtherapeutic dose) was initiated at 2 h post-infection and repeated at 6, 12, and 18 h post-infection. CFUs were assessed 24 h post-infection in the lung. Compound 54 was administered subcutaneously and ciprofloxacin intraperitoneally (IP).
# Thigh infection studies were performed using Compounds 54 and 72.
# [8] = system: Pseudomonas aeruginosa MDR clinical isolates; assay: Pyocyanin production in MDR clinical isolates; assay type: cell-based; conditions: 10 μM
# Protocol: Percentage of pyocyanin production is presented in presence of 10 μM of D57 or D88 compounds. Tukey's multiple comparisons test p<0.0001.
# Pyocyanin levels were determined by measuring OD520nm of chloroform-extracted cultures.
# [9] = system: adhesive intestinal E. coli; assay: Activity against other bacterial pathogens (preliminary); assay type: cell-based
# PA clinical isolate PA14 = assay: Biofilm formation (microtiter biofilm assay); assay type: cell-based, P. aeruginosa; conditions: 10 μM
# Protocol: (§2) Statistical significance to the control was assessed using one-way ANOVA+Dunnett's post-test. P<0.001-0.005.
# Inhibition of biofilm formation was assessed by quantifying initiation of biofilm formation via assessment of surface adhesion of PA using the microtiter biofilm assay as described in O'Toole, G A. J. Vis. Exp. 2011, Microtiter Dish Biofilm Formation Assay. Using single optimized agents, this assay allowed for various concentrations of each compound and several incubation times to be investigated in an HTS manner.
# Solubility = assay type: physicochemical; conditions: initial solubility studies; listed as D88
# From the text: FIGS. 6A-6E show pharmacological properties of a representative group of MvfR inhibitors.
# [10] = system: P. aeruginosa MDR clinical isolates; assay: AT/P cell formation in MDR clinical isolates; assay type: cell-based; conditions: 10 μM; MDR clinical isolates incl. mucoid strain from CF patients
# Protocol: as §2, §1
# Acenitobacter baumanii = assay: Activity against other bacterial pathogens (preliminary); assay type: cell-based
# [11] = Steady State Binding Affinity KD (μM), SPR
# [12] = Steady State Binding Affinity KD [M], SPR
# [13] = compound at 10 uM, listed as D62
# [14] = compound at 50 uM, listed as D62
# T1 sequence (Q9I4X0 91-332): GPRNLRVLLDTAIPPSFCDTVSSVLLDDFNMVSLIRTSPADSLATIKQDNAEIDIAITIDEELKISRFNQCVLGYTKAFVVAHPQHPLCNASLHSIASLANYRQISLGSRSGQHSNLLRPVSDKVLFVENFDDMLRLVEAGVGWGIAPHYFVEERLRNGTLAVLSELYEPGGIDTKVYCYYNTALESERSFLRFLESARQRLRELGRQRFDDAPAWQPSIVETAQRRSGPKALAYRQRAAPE
Compound,IC50 (MvfR regulon [3]) [µM],activity at 50 µM (MvfR regulon [3]) [%],stability in vivo (serum concentration) [4],pharmacokinetics (in words) [4],Signal Intensity Rmax (MvfR; SPR),Kd (MvfR; [11]) [µM],Kd (MvfR; [12]) [µM],pKd (MvfR; SPR),toxicity to Caco2 (survival) [5],IC50 (MvfR regulon [6]) [µM],activity at 10 µM (MvfR regulon [6]) [%],activity at 50 µM (MvfR regulon [6]) [%],activity at 1 µM (MvfR regulon [3]) [%],activity at 10 µM (MvfR regulon [3]) [%],activity on pyocyanin production in MDR clinical isolates [8],further results
N#Cc1ccc(NC(=O)CC(=O)Nc2ccc(Cl)cc2)cc1 [Compound 53],2.4,6.23,stable in vivo,promising pharmacokinetics,26.52,0.244,0.244,~6.60 and 6.60,not toxic,1.25,1.55,7.97,,,,"IC50 (MvfR regulon [1]; PA14, read-out: IC50 2-AA (μM)): 5.6 µM; IC50 (MvfR regulon [1]; PA14, read-out: IC50 DHQ (μM)): 9.1 µM; IC50 (MvfR regulon [1]; PA14, read-out: IC50 HHQ (μM)): 10.3 µM; IC50 (MvfR regulon [1]; PA14, read-out: IC50 PQS (μM)): 8.3 µM; activity at 50 µM (MvfR regulon [1]; read-out: 2-AA @50 uM): 5.87%; activity at 50 µM (MvfR regulon [1]; read-out: AA @50 uM): 739%; activity at 50 µM (MvfR regulon [1]; read-out: DHQ @50 uM): 10.3%; activity at 50 µM (MvfR regulon [1]; read-out: HHQ @50 uM (%)): 1.63%; activity at 50 µM (MvfR regulon [1]; read-out: HQNO @50 uM (%)): 13.9%; IC50 (MvfR regulon [1]; read-out: IC50 AA (increase; μM)): 14.5 µM; IC50 (MvfR regulon [1]; read-out: IC50 HQNO (μM)): 7.3 µM; activity at 50 µM (MvfR regulon [1]; read-out: PQS @50 uM (%)): 8.37%; inhibition of persistence (PA14 [2]): inhibit persistence; stability in vivo (serum concentration) ([4]; listed as D41): highly stable in vivo; binding to MvfR (in words) (MvfR; FIG. 1B): high affinity; binding intensity relative to parent Compound 1 (MvfR; SPR): 40 times"
N#Cc1ccc(NC(=O)CC(=O)Nc2ccc(Oc3ccccc3)cc2)cc1 [Compound 72],0.891,6.06,stable in vivo,promising pharmacokinetics,34.24,1.09,1.09,6.60,not toxic,0.52,1.08,3.7,14,16.8,,"bacterial CFUs at the site of infection (PA14 [7]; 10 mg/kg SC, CFUs 24 h post-infection): decrease bacterial dissemination and titer at the infection site; also recorded: reduced bacterial CFUs; potentiation of ciprofloxacin in reducing PA cells dissemination in spleen and liver (PA14 [7]; 10 mg/kg compound SC plus ciprofloxacin 1 mg/kg IP): potentiated ciprofloxacin efficacy; half-life ([4]; mouse lung, 10 mg/kg SC, read-out: lung half-life (converted)): 71.4 min; Tlast ([4]; mouse plasma, 10 mg/kg SC): ~6 h; half-life ([4]; mouse plasma, 10 mg/kg SC, read-out: plasma half-life (converted)): 67.8 min; activity on pyocyanin production in MDR clinical isolates ([8]; listed as D57): highly active; also recorded: confirmed"
O=C(CC(=O)Nc1ccc([N+](=O)[O-])cc1O)Nc1ccc(Oc2ccccc2)cc1 [Compound 76],0.368,5.6,,,36.46,0.478,0.478,,,0.42,10,6.7,10.5,6.17,highly active,
N#Cc1ccc(NC(=O)CC(=O)Nc2ccc(Oc3ccccc3)cc2)c(N)c1 [Compound 77],,,,,,,,,,,,,,,highly active,"pyocyanin @1 uM (%) (MvfR regulon [3]; compound at 1 uM, listed as D62): 57.50%; pyocyanin @10 uM (%) (MvfR regulon [3]; [13]): 6.17%; pyocyanin @50 uM (%) (MvfR regulon [3]; [14]): 7.30%; pqsA @10 uM (%) (MvfR regulon [6]; [13]): 1.51%; pqsA @50 uM (%) (MvfR regulon [6]; [14]): 6.20%"
N#Cc1ccc(NC(=O)CC(=O)Nc2ccc(Oc3ccccc3)cc2)c(O)c1 [Compound 78],0.618,5.9,,,34.69,0.494,0.494,,,0.938,9.63,7.3,8.8,5.73,highly active,
N#Cc1ccc(NC(=O)C(F)C(=O)Nc2ccc(Oc3ccccc3)cc2)cc1 (stereo not shown) [Compound 103],0.95,5.58,,,,,,6.60,,,1.95,,28.1,4.4,,potency against adhesive intestinal E. coli [9]: potent; activity against biofilm formation (PA clinical isolate PA14): highly active; solubility (Solubility): 0.190 mg/mL; activity against antibiotic tolerant/persister cell formation [10]: highly active; potency against Acenitobacter baumanii (Acenitobacter baumanii): potent; activity on pyocyanin production in MDR clinical isolates ([8]; listed as D88): highly active; also recorded: confirmed
